Data: patent publication US9896659B2, “Methods, kits, and compositions for stem cell self-renewal” (STOWERS INSTITUTE FOR MEDICAL RESEARCH, priority 2011, dated 2018)
“Also recorded” adds a separate entry of the source.

How the values were obtained:
LSK Flk2^− cells = test: 14-day ex vivo expansion of bone marrow MNCs in ST media with or without GSK3β inhibitor, FACS; assay type: cell-based, mouse; conditions: 14-day culture of MNCs; average; FIG. 26B (250 nM CHIR99021)
Method: For the experiments set forth in this Example, a particular HSC expansion media was used. This HSC expansion media consists of the following ingredients: (1) StemSpan Media (Stem Cell Technologies; Cat. No. 09600) (StemSpan Media consists of Iscove's-modified Dulbecco's medium (IMDM) supplemented with 1% bovine serum albumin, 10 μg/ml recombinant human insulin, 200 μg/ml iron-saturated transferrin, 0.1 mM 2-mercaptoethanol and 2 mM glutamine.); (2)10 μg/ml Heparin (Sigma; Cat. No. H-3149); (3) 0.5× Penicillin/Streptomycin (Sigma; Cat. No. P4333); (4) 10 ng/ml recombinant mouse (rm) or recombinant human (rh) Stem Cell Factor (SCF) (Biovision; Cat. No. 4328-10 or 4327-10, respectively); (5) 20 ng/ml rm or rh Thrombopoietin (Tpo) (Cell Sciences, Inc; Cat. No. CRT401B or CRT400B, respectively). CHIR99021 (250 nM) (Stemgent, Inc; Cat. No. 04-0004) may be added to this HSC expansion media as indicated.
Bone marrow cells were harvested from C57Bl/6 (CD45.2) mice and made into a single cell suspension by gently drawing through a 22 g needle several times. Mobilized peripheral blood or bone marrow from human patients was harvested at the University of Kansas Medical Center (Kansas City, Mo. USA). […] Mononuclear cells were isolated from mouse bone marrow using Histopaque 1077 (Sigma; Cat. No. 10771) and human blood or bone marrow using Ficoll-Paque PLUS (Stem Cell Technologies; Cat. No. 07917) according to the manufacturers' instructions. Cells were washed and resuspended in HSC expansion media. Cells were counted and a fraction of mononuclear cells (MNCs) were stained for lineage markers using CD3, CD4, CD8, B220, IgM, Mac-1, Gr1, and Ter119 antibodies along with Kit, Sca-1, and Flk2 for mouse HSC analysis or CD34 and CD38 for human HSC analysis. 1×10^6 cells/0.1 ml were stained at 4° C. for 30 minutes using 0.05 μg of antibody for each lineage marker and 0.2 μg for remaining antibodies. […] Frequency of putative HSCs (lineage negative, Sca-1^+, Kit^+, Flk-1^− for mouse or CD34^+, CD38^− cells for human) was determined by analyzing >3×10^6 cells per sample independently in triplicate. […]

[1] = test system: lethally irradiated CD45.1 recipient mice; test: Competitive repopulation assay of 14-day cultures; assay type: in vivo, mouse; conditions: for Average repopulation: long-term engraftment (FIGS. 5 and 13)
Method: For the experimental results shown in FIG. 13A, sorted LSK Flk2^− cells and unsorted MNCs containing a known quantity of LSK Flk2^− cells (CD45.2^+) were cultured for 14 days in ST media with and without CHIR99021. The cultured product of 100 sorted or 5 unsorted LSK Flk2^− cells per mouse were transplanted into lethally irradiated recipients (CD45.1^+). 5 freshly isolated, unsorted LSK Flk2^− cells per mouse were transplanted into a separate group. 1×10^5 freshly isolated CD45.1^+ competitor/radioprotective cells were also added per mouse. Peripheral blood analysis of recipients at 16 weeks post-transplant depicts % chimerism.
(§1) Bone marrow mononuclear cells (MNCs) were fractionated and the concentration of lineage marker negative, Sca-1^+, c-Kit^+, Flk2^− (LSKF^−) cells was determined. MNCs containing a known quantity of LSKF^− cells were cultured for 14 days in media containing SCF and Tpo (ST), ST media with 250 nM CHIR99021 or ST media with 2 mM lithium chloride (LiCl) as indicated. After 14 days, the cellular product of these cultures was transplanted into lethally-irradiated recipients (10 Gray units) at a dosage corresponding to an original input into culture of MNCs containing 5 LSKF^− cells per mouse for each group. 1×10^5 competitor bone marrow cells congenic with the hosts (CD45.1^+) were included per mouse. At 4 weeks post-transplant, peripheral blood was collected from each transplant recipient, and donor vs. host derived hematopoietic cells were determined by FACS analysis.
as §1, with “At 16” for “At 4”
Cells were incubated at 37° C. with 5% CO2 and 5% O2 (balance N2) for 14 days. […]

SMILES: Cc1c[nH]c(-c2cnc(NCCNc3ccc(C#N)cn3)nc2-c2ccc(Cl)cc2Cl)n1 [CHIR99021]
- Increase in total number of LSK Flk2^− cells (LSK Flk2^− cells): 93 fold
- Repopulation capacity of ex vivo expanded HSCs ([1]; 4 weeks post-transplant, 250 nM CHIR99021 or 2 mM LiCl in ST media, 14 days): enhance repopulation capacity of ex vivo expanded hematopoietic stem cells
- Long-term repopulation / engraftment of ex vivo expanded HSCs ([1]; 16 weeks post-transplant, 250 nM CHIR99021 or 2 mM LiCl in ST media, 14 days): enhance long-term repopulation capacity of ex vivo expanded hematopoietic stem cells; also recorded: enhances long-term engraftment of ex vivo expanded HSCs
- Average repopulation ([1]; 100 sorted putative HSCs cultured 14 days): 12.3%
- Average repopulation ([1]; unsorted MNC cultures, 14 days): 64.8%
